Test results: patent US20090264384A1, “INDOLE, BENZIMIDAZOLE, AND BENZOLACTAM BORONIC ACID COMPOUNDS, ANALOGS THEREOF AND METHODS OF USE THEREOF” (Nuada, Inc., priority 2004, published 2009)

Key:
Phosphodiesterase 5(h) = target: T1, Phosphodiesterase 5(h) (Homo sapiens, UniProt O76074); experiment: Phosphodiesterase 5(h) enzyme assay; type: biochemical; details: 1.0E−05 M
T1 construct: human platelets; from tissue; host or cells: human platelets

MAO-A(h) = target: T2, MAO-A(h) (Homo sapiens, UniProt P21397); experiment: MAO-A(h) enzyme assay; type: biochemical; details: 1.0E−05 M
T2 construct: human placenta; from tissue; host or cells: human placenta

σ (non-selective) = σ (non-selective) binding assay; design: species or system rat; details: 1.0E−05 M
K^+V channel = K^+V channel binding assay; design: species or system rat; details: 1.0E−05 M
NK2(h) = target: T3, NK2(h) (Homo sapiens, UniProt P21452); experiment: NK2(h) binding assay; details: 1.0E−05 M; read-out: % Inhibition of Control Specific Binding
T3 construct: expressed in transfected cells; host or cells: CHO cells

H3 = H3 binding assay; design: species or system rat; details: 1.0E−05 M
TNF-α production by PMBC = experiment: Inhibition of TNF-α Production By Peripheral Blood Monocyte Cells (PMBC), LPS stimulated; type: cell-based; details: 1 ug/mL LPS, 24 hours
Description: PMBC in RPMI 1640 Cell Culture Medium (containing 1% Penicillin and 1% Streptomycin) are aliquoted into 96-well plates at 5×10^5 cells/well and pre-incubated with test compounds for 30 minutes at 37° C. After incubation, 1 ug/mL LPS is added to each well to stimulate TNF-α production and the plate is incubated for 24 hours at 37° C. After incubation, the supernatant is removed and the TNF-α secreted is quantified using EIA detection kits commercially available from R&D Systems (USA). The results from this assay are expressed as percent inhibition of control activity, with the control being stimulated wells with no test compound. Dexamethasone is used as a standard reference compound in the assay and is tested with each experiment. All test compounds are diluted from 10 mM stock solutions in 100% DMSO.

LTD4(h) = target: T4, LTD4(h) (Homo sapiens, UniProt Q9Y271); experiment: LTD4(h) binding assay; details: read-out: % Inhibition of Control Specific Binding
T4 construct: LTD4(h); U-937 cells; LTD4; Frey et al. (1993); endogenous in cells; host or cells: U-937 cells

Progesterone(h) (PR) = Progesterone(h) (PR) binding assay; design: species or system human; details: 1.0E−05 M
[1] = target: N (neuronal) (α-BGTX-insensitive) (Rattus norvegicus, UniProt P09483+P12390); experiment: N (neuronal) (α-BGTX-insensitive) binding assay; details: 1.0E−05 M; read-out: % Inhibition of Control Specific Binding
V2(h) = target: T5, V2(h) (Homo sapiens, UniProt P30518); experiment: V2(h) binding assay; details: 1.0E−05 M; read-out: % Inhibition of Control Specific Binding
T5 construct: expressed in transfected cells; host or cells: CHO cells

H1(h) = target: T6, H1(h) (Homo sapiens, UniProt P35367); experiment: biochemical; details: 1.0E−05 M; read-out: % Inhibition of Control Specific Binding
T6 construct: expressed in transfected cells; host or cells: HEK-293 cells

[2] = test system: colitis provoked by trinitrobenzene sulphonic acid (TNBS); experiment: Rat model of colitis provoked by TNBS, 3 days, treatment from Day −1 (CCI-7155, CCI-7156); type: in vivo; details: vs CMC group
Description: The effects of CCI-7155 and CCI-7156, were evaluated in the TNBS model at one and two oral dose levels, administered twice a day by gavage, treatment commencing 1 day prior to challenge. A low intracolonic concentration of TNBS (10 mg) was used, known to produce reproducible yet not unduly severe mucosal injury in the colon, determined 3 days after instillation. Colonic macroscopic injury has been assessed, as has colonic weight as a reflection of colonic oedema and wet/dry weight to determine colonic water content, along with determination of myeloperoxidase (MPO) activity (Bradley et al, 1982) as an index of white cell infiltration for the evaluation of tissue injury. In addition to the test compounds [CCI-7155 and CCI-7156], the actions of sulfasalazine, a well-established and currently used treatment has also been evaluated in this model.
TNBS Challenge—Male Wistar rats (230-280 g) were randomised into groups of 8-10 before commencement of the study. Food was withdrawn 18 h (overnight) before TNBS administration, but the rats were allowed free access to drinking water. On the morning of the day of challenge, Day 0, the rats were transiently anaesthetised with ether and TNBS (10 mg in 0.25 ml of 50% ethanol) was instilled approximately 6-8 cm into the colon using a soft plastic catheter inserted in the rat rectum. The rats were allowed to recover with free access to food and drinking water. At the end of the experiment, 72 h after TNBS administration (i.e. on the morning of Day 3, between 9.00 and 11.00), the distal colon was dissected, and the distal 8 cm photographed and stored appropriately for subsequent analyses.
The following primary parameters were measured in the main study: (a) macroscopic scoring of distal 8 cm of colon; (b) myeloperoxidase levels in segments of distal 8 cm of colon. In addition, the weight of the colonic segment was assessed as an indirect and non-specific marker of oedema, and this was supported by measurement of the wet/dry ratio as an index of water content. The body weight of the animals was also determined and expressed as % change from the day of challenge.
Treatments. All challenged groups were dosed orally twice daily from Day −1. The groups for study were:
The compounds were thus administered orally, twice daily and given on Day −b 1 before TNBS administration, on Day 0, the day of TNBS administration and on Day 1 and 2. Tissues were removed 72 h after TNBS administration (on Day3). Dosing was performed once in the morning (Between 9:00 and 11:00) and once in the late afternoon (between 18:00 and 20:00).
Preparation of Compound. CCI-7155 and CCI-7156 were suspended in 0.5% w/v carboxy methyl cellulose in sterile water, to produce a smooth suspension as instructed, and administered in a volume of 2 ml/kg (˜0.5 ml per rat per dose).
Preparation of Sulfasalazine. the Doses of Sulfasalazine Used in the Present study were derived from previously published work with this agent in the TNBS model (Boughton-Smith et al, 1988; Sykes et al, 1999; Galvez et al, 2000; Bobin-Dubigeon et al, 2001). Sulfasalazine was suspended in carboxy methyl cellulose (0.5% w/v in sterile water; Sigma Chemical Co, compound reference M-0262) and administered p.o. in a volume of 0.5 ml. In previous studies in these laboratories, this concentration of carboxy methyl cellulose (CMC) had no significant effect on the extent of colitis as determined by macroscopic injury and changes in inflammatory markers following TNBS challenge.
Macrocopic Injury. The distal 8 cm portion of the colon (measured from the rectum) was removed, opened longitudinally and gently rinsed with ice-cold phosphate buffer (PBS; pH 7.4), blotted, weighed (Scaltec, Germany) and photographed (Samsung, Digimax 340, digital camera). The tissue was then cut into longitudinal strips, each strip being thus 8 cm long and included the whole of the zone of injury. […]

[3] = 50 mg/kg/day p.o. in divided doses, 72 h after TNBS

T4 sequence (Q9Y271 whole entry): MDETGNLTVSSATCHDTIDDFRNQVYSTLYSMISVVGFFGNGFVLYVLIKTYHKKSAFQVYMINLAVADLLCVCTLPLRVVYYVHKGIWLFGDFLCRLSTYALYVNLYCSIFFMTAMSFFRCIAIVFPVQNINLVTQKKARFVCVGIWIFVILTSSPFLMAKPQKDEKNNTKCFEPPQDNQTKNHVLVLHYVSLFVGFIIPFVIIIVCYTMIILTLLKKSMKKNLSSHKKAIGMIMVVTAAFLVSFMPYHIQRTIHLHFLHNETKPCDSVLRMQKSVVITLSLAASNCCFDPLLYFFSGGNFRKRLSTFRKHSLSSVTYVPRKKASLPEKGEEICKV
T3 sequence (P21452 whole entry): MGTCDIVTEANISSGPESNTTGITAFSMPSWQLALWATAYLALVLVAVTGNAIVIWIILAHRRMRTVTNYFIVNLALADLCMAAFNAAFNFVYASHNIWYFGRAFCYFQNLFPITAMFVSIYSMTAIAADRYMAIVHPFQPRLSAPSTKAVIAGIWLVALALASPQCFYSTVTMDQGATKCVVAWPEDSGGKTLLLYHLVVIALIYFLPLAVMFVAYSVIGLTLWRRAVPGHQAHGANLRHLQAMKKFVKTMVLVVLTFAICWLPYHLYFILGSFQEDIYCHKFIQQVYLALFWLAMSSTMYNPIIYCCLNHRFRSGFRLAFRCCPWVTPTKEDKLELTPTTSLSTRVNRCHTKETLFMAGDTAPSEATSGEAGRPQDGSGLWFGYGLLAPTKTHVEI
T6 sequence (P35367 whole entry): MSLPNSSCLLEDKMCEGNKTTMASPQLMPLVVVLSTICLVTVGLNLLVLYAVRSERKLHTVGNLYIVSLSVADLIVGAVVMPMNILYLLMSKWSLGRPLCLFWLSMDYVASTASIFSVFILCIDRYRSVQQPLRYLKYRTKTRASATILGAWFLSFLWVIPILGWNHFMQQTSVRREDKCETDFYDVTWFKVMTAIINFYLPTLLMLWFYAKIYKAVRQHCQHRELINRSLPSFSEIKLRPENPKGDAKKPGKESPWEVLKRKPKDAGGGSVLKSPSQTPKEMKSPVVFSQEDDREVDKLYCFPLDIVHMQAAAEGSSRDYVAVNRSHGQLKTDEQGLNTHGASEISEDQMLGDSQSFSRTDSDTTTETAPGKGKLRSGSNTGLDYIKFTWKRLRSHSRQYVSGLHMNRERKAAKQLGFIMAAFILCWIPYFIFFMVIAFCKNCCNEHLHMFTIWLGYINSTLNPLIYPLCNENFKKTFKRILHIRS
T2 sequence (P21397 whole entry): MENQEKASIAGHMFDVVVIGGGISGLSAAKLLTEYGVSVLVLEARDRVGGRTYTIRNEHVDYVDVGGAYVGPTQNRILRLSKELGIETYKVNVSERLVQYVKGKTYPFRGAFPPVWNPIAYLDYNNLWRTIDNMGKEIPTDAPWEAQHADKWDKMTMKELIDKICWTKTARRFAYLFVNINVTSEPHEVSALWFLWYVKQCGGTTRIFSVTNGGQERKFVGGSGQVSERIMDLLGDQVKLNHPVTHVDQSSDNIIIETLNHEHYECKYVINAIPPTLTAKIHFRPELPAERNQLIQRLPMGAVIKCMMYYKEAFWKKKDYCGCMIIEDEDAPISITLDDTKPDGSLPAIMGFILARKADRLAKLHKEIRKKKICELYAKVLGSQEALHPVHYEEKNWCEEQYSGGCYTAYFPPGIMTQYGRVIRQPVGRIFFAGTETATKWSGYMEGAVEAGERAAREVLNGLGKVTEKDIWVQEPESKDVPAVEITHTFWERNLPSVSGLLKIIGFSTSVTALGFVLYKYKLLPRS
N (neuronal) (α-BGTX-insensitive), sequence (P09483 31-630): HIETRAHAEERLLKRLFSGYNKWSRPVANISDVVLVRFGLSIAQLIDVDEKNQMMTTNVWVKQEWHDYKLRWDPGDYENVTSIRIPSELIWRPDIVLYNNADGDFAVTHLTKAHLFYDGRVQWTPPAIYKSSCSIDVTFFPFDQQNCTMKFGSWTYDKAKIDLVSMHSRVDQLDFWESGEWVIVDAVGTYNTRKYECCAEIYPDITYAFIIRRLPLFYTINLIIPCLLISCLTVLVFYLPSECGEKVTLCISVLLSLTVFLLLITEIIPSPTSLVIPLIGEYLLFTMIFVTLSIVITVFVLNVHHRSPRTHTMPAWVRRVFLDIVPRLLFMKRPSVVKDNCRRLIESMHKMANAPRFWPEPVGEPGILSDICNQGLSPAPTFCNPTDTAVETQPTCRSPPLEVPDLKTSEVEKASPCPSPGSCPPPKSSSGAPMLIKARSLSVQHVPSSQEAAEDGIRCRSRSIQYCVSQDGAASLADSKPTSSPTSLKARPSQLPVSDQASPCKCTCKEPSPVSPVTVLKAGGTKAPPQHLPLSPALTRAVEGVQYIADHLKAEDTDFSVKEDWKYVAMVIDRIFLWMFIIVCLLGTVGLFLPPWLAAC
N (neuronal) (α-BGTX-insensitive), sequence (P12390 25-500): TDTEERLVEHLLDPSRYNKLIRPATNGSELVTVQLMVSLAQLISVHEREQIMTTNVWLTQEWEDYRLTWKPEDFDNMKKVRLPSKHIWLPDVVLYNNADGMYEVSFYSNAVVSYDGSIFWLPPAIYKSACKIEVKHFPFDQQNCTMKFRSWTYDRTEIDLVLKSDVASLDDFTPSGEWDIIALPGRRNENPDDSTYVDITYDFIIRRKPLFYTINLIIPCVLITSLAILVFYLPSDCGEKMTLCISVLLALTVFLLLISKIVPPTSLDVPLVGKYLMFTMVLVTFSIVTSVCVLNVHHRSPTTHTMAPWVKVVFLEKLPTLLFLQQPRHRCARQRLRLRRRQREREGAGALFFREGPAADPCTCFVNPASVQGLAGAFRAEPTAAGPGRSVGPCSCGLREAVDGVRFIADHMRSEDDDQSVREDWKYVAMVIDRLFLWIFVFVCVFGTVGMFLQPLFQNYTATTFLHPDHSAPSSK
T5 sequence (P30518 whole entry): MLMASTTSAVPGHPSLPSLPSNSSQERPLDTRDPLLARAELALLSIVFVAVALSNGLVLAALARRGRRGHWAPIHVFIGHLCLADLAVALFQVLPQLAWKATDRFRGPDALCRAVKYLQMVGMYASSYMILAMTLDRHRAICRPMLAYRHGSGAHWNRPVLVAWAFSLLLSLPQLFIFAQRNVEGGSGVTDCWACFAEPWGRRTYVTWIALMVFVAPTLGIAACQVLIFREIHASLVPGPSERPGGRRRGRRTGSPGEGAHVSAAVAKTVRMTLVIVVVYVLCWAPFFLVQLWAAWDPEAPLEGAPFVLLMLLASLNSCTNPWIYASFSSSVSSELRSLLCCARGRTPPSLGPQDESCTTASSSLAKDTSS

Structure (SMILES)	% Inhibition of Control Values (Phosphodiesterase 5(h)) [%]	% Inhibition of Control Values (MAO-A(h)) [%]	% Inhibition of Control Specific Binding (σ (non-selective)) [%]	% Inhibition of Control Specific Binding (K^+V channel) [%]	inhibition at 10 µM (NK2(h)) [%]	% Inhibition of Control Specific Binding (H3) [%]	IC50 (TNF-α production by PMBC) [nM]	inhibition at 10 µM (LTD4(h)) [%]	% Inhibition of Control Specific Binding (Progesterone(h) (PR)) [%]	inhibition at 10 µM [1] [%]	inhibition at 10 µM (V2(h)) [%]	inhibition at 10 µM (H1(h)) [%]	attenuation of TNBS-induced fall in body weight (% change in body weight at Day 0) ([2]; 50 mg/kg/day p.o. in divided doses b.i.d.)	reduction in area of macroscopic colonic injury [2, 3]	reduction in colon weight [2, 3]	reduction in colonic MPO levels [2, 3]	reduction in colonic water content (wet/dry weight) [2, 3]
N#Cc1ccc2c(ccn2CCCCCB(O)O)c1 [Example 20, 5-(5-cyano-1H-indol-1-yl)pentylboronic acid]	94	6	5	−5	-2	0	750	12	79	12	5	6					
O=C(O)c1cc(/N=N/c2ccc(S(=O)(=O)Nc3ccccn3)cc2)ccc1O [sulfasalazine, reference compound]													did not reach statistical significance	significantly (P<0.001) reduced the extent of macroscopic injury	significant reduction in colon weight was also not observed	significantly reduced the elevated colonic levels of MPO	significant reduction in colon weight was also not observed
